Results published in patent US7064114B2, “Gel-microemulsion formulations” (priority 1999, dated 2006).
Where “and” joins values, the source holds several entries; their conditions need not be identical. Identical values can stand only once.

Assays:
Solubility of WHI-07 = type: physicochemical; settings: for solubility at 2 h: thermodynamic from solid, n = 3
Experimental: (§1) After the drug was completely dissolved in octanol, 5 ml of water was added to each octanol solution. The mixtures were handshaken vigorously for 10 min, and afterward let to stand overnight until a complete phase separation occurred.
The solubility of WHI-07 in Captex® 300 and polyethylene glycol 300 was carried out using UV-Vis spectrophotometer at 272 nm.
Calibration curve: Two stock solutions of WHI-07 were prepared in ethanol at concentrations of 4.2 mg/ml and 3.85 mg/ml respectively. The plot of the calibration curve is shown in Curve 1.
Appropriate amounts of WHI-07 and Captex® 300 or PEG300 were weighed and placed in glass containers. Each sample was stirred with a stir bar at ambient temperature for 2 hours. Each sample was then filtered through 0.45 μm filter, and diluted with ethanol for UV-Vis measurement.

[1] = Octanol/water partition coefficient of WHI-07; type: physicochemical
Experimental: as §1
Samples of water and octanol were taken from each mixture, and directly injected into the HPLC for analysis. The peak area ratios represent the partition coefficient.

human sperm = assay: Computer-assisted spermicidal assay (CASA) on washed highly motile fraction of sperm; type: cell-based; settings: 3 h at 37° C.; for effect on human sperm motility: concentrations up to those used for GM-4, CASA
Experimental: All donor specimens were obtained after informed consent and in compliance with the guidelines of the Parker Hughes Institute Institutional Review Board. […] Sigma Chemical Co., St. Louis, Mo.) in the presence and absence of serial 2-fold dilutions of test substance. […] After 3 h incubation at 37° C., the sperm head centroid-derived sperm motility parameters were determined using a Hamilton Thorne Research (Danvers, Mass.) Integrated Visual Optical System (IVOS), version 10 instrument, as previously described (D'Cruz O J, et al., Biol Reprod, 1998;58:1515-26.; D'Cruz O J, et al., Mol Hum Reprod, 1998;4:683-93.; D'Cruz O J, et al., Biol Reprod, 1999;60:435-44.; D'Cruz O J, et al. Biol Reprod, 1999;60:1419-28.). The attributes of sperm kinematic parameters evaluated included numbers of motile (MOT) and progressively (PRG) motile sperm; curvilinear velocity (VCL); average path velocity (VAP); straight-line velocity (VSL); beat-cross frequency (BCF); and the amplitude of lateral head displacement (ALH) and the derivatives, straightness (STR) and linearity (LIN). Data from each individual cell track were recorded and analyzed. For each aliquot sampled, >200 sperm were analyzed. The percentage motilities were compared with those of sham-treated control suspensions of motile sperm.

[2] = cited from earlier work

For `COC(=O)C(C)NP(=O)(OC[C@H]1O[C@@H](N2C(=O)NC(=O)C(C)(Br)C2OC)CC1N=[N+]=[N-])Oc1ccc(Br)cc1` (mixture of isomers) [WHI-07, (5R,6R)-and (5S,6S)-5-bromo-6-methoxy-5,6-dihydro-AZT-5′-(para-bromophenylmethoxyalaninyl phosphate)], the “solubility in oil (medium chain triglyceride)” value (Solubility of WHI-07; medium chain triglyceride) was 4.1%, the solubility at 2 h (Solubility of WHI-07; oil or lipid, in Captex® 300, ambient temperature) was 40.6 mg/mL and the solubility at 2 h (Solubility of WHI-07; organic solvent or mixture, in PEG300, ambient temperature) was 132 mg/mL. For the same compound, the “solubility in polyethylene glycol 300” value (Solubility of WHI-07; polyethylene glycol 300) was 13.1%, the solubility in water (Solubility of WHI-07; water) was less than 0.003% and the logP ([1]; octanol/water, average of four samples, read-out: Octanol/Water partition coefficient Log KD) was 2.05. The “Peak area ratio Octanol/water” value ([1]; single samples 1-4, HPLC) was 113.9 and 111.3 and 115.8 and 109.2.
With `CC(O)CO` (stereo not drawn) [propylene glycol, propane-1,2-diol] the “EC50 (concentration that decreased the proportion of motile sperm by 50%)” value (human sperm) was greater than 4.2% and the “effect on human sperm motility” value (human sperm) was “partially spermicidal at the highest concentration tested”.
For `O=C([O-])c1ccccc1.[Na+]` [sodium benzoate], the “effect on human sperm motility” value (human sperm) was “little or no inhibitory effects”.
In the case of “isononyl-phenyl-polyoxyethylene (9) ether [N-9]”, the “average 6-month pregnancy rate” value ([2]; users of N-9, several large studies) is given as 26% and the “effectiveness in preventing pregnancy” value ([2]; users of N-9) is given as “approximately 75%”.
